Patent US6921824B1, “Ruthenium dimeric complexes suitable as antimetastatic and antineoplastic agents” (priority 1999, dated 2005)
Marks after values point to notes of the source that are not given here.

Experiments:
MCa mammary carcinoma = test: Pre-surgical treatment: prevention of lung metastases formation in mice with MCa mammary carcinoma; type: in vivo; settings: for Lung metastases Number % T/C / Lung metastases weight % T/C: Treated/Control; for Lung metastases Number mean / Lung metastases weight (mg) mean: evaluated day 29; for Body weight % var: variation day 11 to day 16 vs untreated controls; for Selectivity of action on lung metastases versus primary tumour: MCa mammary carcinoma model of the CBA mouse; for Number of lung metastases (in words) / Weight of lung metastases (in words): at two dose levels, pre-surgical treatment
Method: In vivo tests of the activity of the compounds according to the present invention in mice affected from MCa mammary carcinoma: prevention activity in the formation of lung metastases.
Five groups of CBA kin female mice weighing 23±3 g were inoculated with […] viable cells (as determined by the Trypan blue exclusion) of MCa mammary carcinoma in 0.05 ml Dulbecco's pH 7.4 buffered calcium and magnesium-free solution (PBS), by intramuscular injection with a sterile insulin syringe. The tumour cells were derived from donors of the same strain, injected with the same tumour cells, following the same procedures 2 weeks before. The suspension of tumour cells was prepared in PBS by mechanically mincing the tumour mass obtained from donor mice, and further removing tissue debris and cells by, respectively, filtration through a double layer of sterile gauze and centrifugation at 250× g for 10 minutes. Kin animals were obtained from a colony from Chester Beatthy from London (UK) which were grown in the University of Trieste animal house accordingly to the procedures accepted for the rearing of kin animals. The MCa mammary carcinoma tumour cell-line derived from a stock, stored in liquid nitrogen, of tumour cells obtained originally from Rudjer Boskovic Institute of Zagreb (HR).
From day 11 to day 16, after tumour cells implantation, five mice groups were treated intraperitoneally with a sterile insulin syringe, respectively with: • Group 1 Control (10 animals): 10 ml/kg of body weight/day of sterile and pyrogen-free physiological solution; • Group 2 (two subgroups a,b of five animals each): 7.5 (a), 15 (b) mg/kg of body weight/day of the compound prepared as described in Example 4 in sterile and pyrogen-free physiological solution; • Group 3 (2 subgroups c,d of five animals each): 15 (c), 30 (d) mg/kg of body weight/day of the compound prepared as described in Example 7 in sterile and pyrogen-free physiological solution; • Group 4 (2 subgroups e,f of 5 animals each): 25 (e), 50 (f) mg/kg of body weight/day of the compound prepared as described in Example 8 in sterile and pyrogen-free physiological solution; • Group 5 (2 subgroups g,h of 5 animals each): 12.5 (g), 25 (h) mg/kg of body weight/day of the compound prepared as described in Example 10 in sterile and pyrogen-free physiological solution.
The administered dosages were either approximated to LD0.1, or to half of it or to a quarter of it, as calculated separately in animals of the same strain and gender and with the same body weight, for an intraperitoneal treatment lasting 6 consecutive days, according to the method of Lichtfield and Wilcoxon, and with an observation time of 10 days since the last dose.
On day 17 since tumour cells implantation, the primary tumour was surgically removed, after general anesthesia of the animals by intraperitoneal injection of 125 mg/kg of Ketamine.
On day 29 since tumour cells implantation, the mice were sacrificed by cervical dislocation for the evaluation of lung metastases. The lungs were abducted from the animals immediately after sacrifice, divided in single lobes which then examined immediately with a low-magnification microscope equipped with a graduated ocular-grid for the measurement of the size of the metastases in which the a and b orthogonal axes (a≦b) were identified. Metastases were classified by size and the metastatic tumour weight for each animal was calculated as the sum of each single metastasis weight, each of them considered as a rotation solid developed around the above mentioned axes and calculated according to the formula (π/6)·a^2·b. The experimental data obtained were then processed by appropriate statistical tests. […]

[1] = system: murine TS/A adenocarcinoma cells; test: In vitro cytotoxicity, MTT analysis (mitochondrial activity); type: cell-based
Method: In vitro cytotoxicity of complexes of the present invention on murine TS/A adenocarcinoma cells.
4×10^3 murine TS/A adenocarcinoma cells resuspended in 200 μl RPMI-1640 medium supplemented with 10% FCS (fetal calf serum), 2 mM glutamine and 50 μg/ml gentamicin sulphate, were seeded in a 96-wells plate. After 24 hours incubation at 37° C., in 5% CO2, the complexes as described in example 4 (A), in example 7 (B), in example 8 (C) and in example 10 (D), each solubilised in RPMI-1640 medium supplemented with 5% FCS, 2 mM glutamine and 50 μg/ml gentamicin sulphate, were added to the cells, each at a final concentration of 10^−4, 10^−5 and 10^−6 M. Cell viability tests were performed after 24, 48 and 72 hours of exposure to the compounds by assessing both the effect on protein synthesis and on mitochondrial activity by means of colorimetric assays, respectively the solphorodamine B test (SRB) and the MTT analysis. Each value (optical density) is the average percentage ±S.E. versus the untreated controls.
Values such as *p<0.05, **p<0.01 indicate average values statistically different from the controls. Analysis of Variance and Dunnet test were used in the comparison analysis.
The results are reported in Table 3, wherein both the effect on protein synthesis (SRB) and the mitochondrial activity (MTT) are reported for each complexes tested at different dosages after different exposure time.

[2] = 7.5 mg/kg/die i.p. day 11-16, pre-surgical
[3] = 15 mg/kg/die i.p. day 11-16, pre-surgical
[4] = 30 mg/kg/die i.p. day 11-16, pre-surgical
[5] = 12.5 mg/kg/die i.p. day 11-16, pre-surgical
[6] = 25 mg/kg/die i.p. day 11-16, pre-surgical
[7] = 50 mg/kg/die i.p. day 11-16, pre-surgical

## C[SH](C)(=O)[Ru-]([Cl])([Cl])([Cl])([Cl])[n+]1cc[n+]([Ru-]([Cl])([Cl])([Cl])([Cl])[SH](C)(C)=O)cc1.[Na+].[Na+] [Example 4, [Na]2[trans-RuCl4(Me2SO)]2(μ-pyz)]
MCa mammary carcinoma; [2]
  Lung metastases Number % T/C: 27%
  Lung metastases weight % T/C: 10%
  Lung metastases Number mean: 14.0
  Lung metastases weight (mg) mean: 8 mg
MCa mammary carcinoma; 7.5 mg/kg/die i.p. day 11-16
  Body weight % var: −4.6%
MCa mammary carcinoma; [3]
  Lung metastases Number % T/C: 4%
  Lung metastases weight % T/C: 0%
  Lung metastases Number mean: 2.0
  Lung metastases weight (mg) mean: 0.2 mg
MCa mammary carcinoma; 15 mg/kg/die i.p. day 11-16
  Body weight % var: −3.3%
MCa mammary carcinoma
  Selectivity of action on lung metastases versus primary tumour: act selectively on lung metastases
  Number of lung metastases (in words): marked reduction
  Weight of lung metastases (in words): even more marked reduction
[1]; 10^−4 M, exposure time 24 h
  MTT optical density, average percentage ±S.E. versus untreated controls: 34 ± 1** %
[1]; 10^−4 M, exposure time 48 h
  MTT optical density, average percentage ±S.E. versus untreated controls: 50 ± 7** %
[1]; 10^−4 M, exposure time 72 h
  MTT optical density, average percentage ±S.E. versus untreated controls: 59 ± 1** %
[1]; 10^−5 M, exposure time 24 h
  MTT optical density, average percentage ±S.E. versus untreated controls: 100 ± 10%
[1]; 10^−5 M, exposure time 48 h
  MTT optical density, average percentage ±S.E. versus untreated controls: 108 ± 12%
[1]; 10^−5 M, exposure time 72 h
  MTT optical density, average percentage ±S.E. versus untreated controls: 93 ± 4%
[1]; 10^−6 M, exposure time 24 h
  MTT optical density, average percentage ±S.E. versus untreated controls: 105 ± 10%
[1]; 10^−6 M, exposure time 48 h
  MTT optical density, average percentage ±S.E. versus untreated controls: 101 ± 9%
[1]; 10^−6 M, exposure time 72 h
  MTT optical density, average percentage ±S.E. versus untreated controls: 89 ± 2%

## C[SH](C)(=O)[Ru-]([Cl])([Cl])([Cl])([Cl])[n+]1ccc[n+]([Ru-]([Cl])([Cl])([Cl])([Cl])[SH](C)(C)=O)c1.[Na+].[Na+] [Example 7, [Na]2[trans-RuCl4(Me2SO)]2(μ-pym)]
MCa mammary carcinoma; [3]
  Lung metastases Number % T/C: 10%
  Lung metastases weight % T/C: 2%
  Lung metastases Number mean: 5.0
  Lung metastases weight (mg) mean: 1.7 mg
MCa mammary carcinoma; 15 mg/kg/die i.p. day 11-16
  Body weight % var: −1.4%
MCa mammary carcinoma; [4]
  Lung metastases Number % T/C: 6%
  Lung metastases weight % T/C: 1%
  Lung metastases Number mean: 3.0
  Lung metastases weight (mg) mean: 0.8 mg
MCa mammary carcinoma; 30 mg/kg/die i.p. day 11-16
  Body weight % var: −2.7%
MCa mammary carcinoma
  Selectivity of action on lung metastases versus primary tumour: act selectively on lung metastases
  Number of lung metastases (in words): marked reduction
  Weight of lung metastases (in words): even more marked reduction
[1]; 10^−4 M, exposure time 24 h
  MTT optical density, average percentage ±S.E. versus untreated controls: 90 ± 10%
[1]; 10^−4 M, exposure time 48 h
  MTT optical density, average percentage ±S.E. versus untreated controls: 71 ± 12* %
[1]; 10^−4 M, exposure time 72 h
  MTT optical density, average percentage ±S.E. versus untreated controls: 60 ± 1** %
[1]; 10^−5 M, exposure time 24 h
  MTT optical density, average percentage ±S.E. versus untreated controls: 117 ± 1%
[1]; 10^−5 M, exposure time 48 h
  MTT optical density, average percentage ±S.E. versus untreated controls: 104 ± 9%
[1]; 10^−5 M, exposure time 72 h
  MTT optical density, average percentage ±S.E. versus untreated controls: 93 ± 9%
[1]; 10^−6 M, exposure time 24 h
  MTT optical density, average percentage ±S.E. versus untreated controls: 110 ± 2%
[1]; 10^−6 M, exposure time 48 h
  MTT optical density, average percentage ±S.E. versus untreated controls: 110 ± 13%
[1]; 10^−6 M, exposure time 72 h
  MTT optical density, average percentage ±S.E. versus untreated controls: 104 ± 8%

## C[SH](C)(=O)[Ru-]([Cl])([Cl])([Cl])([Cl])[n+]1ccc(CCc2cc[n+]([Ru-]([Cl])([Cl])([Cl])([Cl])[SH](C)(C)=O)cc2)cc1.[Na+].[Na+] [Example 10, [Na]2[trans-RuCl4(Me2SO)]2(μ-etbipy)]
MCa mammary carcinoma; [5]
  Lung metastases Number % T/C: 15%
  Lung metastases weight % T/C: 6%
  Lung metastases Number mean: 8.0
  Lung metastases weight (mg) mean: 4.6 mg
MCa mammary carcinoma; 12.5 mg/kg/die i.p. day 11-16
  Body weight % var: −2.8%
MCa mammary carcinoma; [6]
  Lung metastases Number % T/C: 25%
  Lung metastases weight % T/C: 1%
  Lung metastases Number mean: 13.0
  Lung metastases weight (mg) mean: 1.2 mg
MCa mammary carcinoma; 25 mg/kg/die i.p. day 11-16
  Body weight % var: −1.1%
MCa mammary carcinoma
  Selectivity of action on lung metastases versus primary tumour: act selectively on lung metastases
  Number of lung metastases (in words): marked reduction
  Weight of lung metastases (in words): even more marked reduction
[1]; 10^−4 M, exposure time 24 h
  MTT optical density, average percentage ±S.E. versus untreated controls: 76 ± 9%
[1]; 10^−4 M, exposure time 48 h
  MTT optical density, average percentage ±S.E. versus untreated controls: 65 ± 4** %
[1]; 10^−4 M, exposure time 72 h
  MTT optical density, average percentage ±S.E. versus untreated controls: 76 ± 4** %
[1]; 10^−5 M, exposure time 24 h
  MTT optical density, average percentage ±S.E. versus untreated controls: 97 ± 12%
[1]; 10^−5 M, exposure time 48 h
  MTT optical density, average percentage ±S.E. versus untreated controls: 93 ± 2%
[1]; 10^−5 M, exposure time 72 h
  MTT optical density, average percentage ±S.E. versus untreated controls: 84 ± 5%
[1]; 10^−6 M, exposure time 24 h
  MTT optical density, average percentage ±S.E. versus untreated controls: 114 ± 7%
[1]; 10^−6 M, exposure time 48 h
  MTT optical density, average percentage ±S.E. versus untreated controls: 109 ± 4%
[1]; 10^−6 M, exposure time 72 h
  MTT optical density, average percentage ±S.E. versus untreated controls: 88 ± 4%

## [Na]2[trans-RuCl4(Me2SO)]2(μ-bipy) [Example 8]
MCa mammary carcinoma; [6]
  Lung metastases Number % T/C: 213%
  Lung metastases weight % T/C: 144%
  Lung metastases Number mean: 111
  Lung metastases weight (mg) mean: 119 mg
MCa mammary carcinoma; 25 mg/kg/die i.p. day 11-16
  Body weight % var: −3.4%
MCa mammary carcinoma; [7]
  Lung metastases Number % T/C: 15%
  Lung metastases weight % T/C: 4%
  Lung metastases Number mean: 8.0
  Lung metastases weight (mg) mean: 3.1 mg
MCa mammary carcinoma; 50 mg/kg/die i.p. day 11-16
  Body weight % var: −1.7%
MCa mammary carcinoma
  Selectivity of action on lung metastases versus primary tumour: act selectively on lung metastases
[1]; 10^−4 M, exposure time 24 h
  MTT optical density, average percentage ±S.E. versus untreated controls: 33 ± 5** %
[1]; 10^−4 M, exposure time 48 h
  MTT optical density, average percentage ±S.E. versus untreated controls: 52 ± 9** %
[1]; 10^−4 M, exposure time 72 h
  MTT optical density, average percentage ±S.E. versus untreated controls: 68 ± 4** %
[1]; 10^−5 M, exposure time 24 h
  MTT optical density, average percentage ±S.E. versus untreated controls: 129 ± 9%
[1]; 10^−5 M, exposure time 48 h
  MTT optical density, average percentage ±S.E. versus untreated controls: 91 ± 3%
[1]; 10^−5 M, exposure time 72 h
  MTT optical density, average percentage ±S.E. versus untreated controls: 90 ± 2%
[1]; 10^−6 M, exposure time 24 h
  MTT optical density, average percentage ±S.E. versus untreated controls: 91 ± 7%
[1]; 10^−6 M, exposure time 48 h
  MTT optical density, average percentage ±S.E. versus untreated controls: 103 ± 9%
[1]; 10^−6 M, exposure time 72 h
  MTT optical density, average percentage ±S.E. versus untreated controls: 93 ± 5%
